Assay results reported in patent publication US20110124574A1, “RESTORATION OF ESTROGEN RECEPTOR-(ALPHA) ACTIVITY” (priority 2008, published 2011).
Where no end group is shown, it is not given here. The star is where a group is joined. For = O=C*

System: ERα
Experiment: ERα protein expression by Western blot in stimulated MDA-MB-231 cells
Assay type: cell-based, human
Settings: stimulation 24 and 48 hours, rWnt-5a 0.6 μg/ml, rWnt-3a 0.1 μg/ml, peptides 100 μM
Description: Breast cancer cells were grown in 6 well plates, and stimulated with recombinant Wnt-5a protein (rW5a), the Wnt-5a derived Foxy-5 peptide (F5), recombinant Wnt-3a protein (rW3a), or a formylated random hexapeptide (Rdm) for 24 or 48 h. Following treatment cells were lysed and subjected to SDS-PAGE, transferred to nitrocellulose membranes and blotted for ERα expression. A: MDA-MB-231 cells stimulated with recombinant Wnt-5a, Foxy-5, Wnt-3a, Rdm. B: MDA-MB-468 cells stimulated with recombinant Wnt-5a or Foxy-5. C: 4T1 cells stimulated with recombinant Wnt-5a or Foxy-5. Positive controls (Pos) were included in order to confirm the correct band size for ERα. Two different positive controls were used: T47D cell lysates known to express ERα and MDA-MB-231 cells transiently transfected with a full length ERα plasmid, resulting in extremely high ERα expression (top row, right panel, third row, right panel).
Stimulation of cells was performed with recombinant Wnt-5a (0.6 μg/ml) and recombinant Wnt-3a (0.1 μg/ml and in a control experiment, 0.6 μg/ml) (R&D Systems Abington, UK) for times as indicated. The Wnt-5a derived formylated hexapeptide, Foxy-5 (formyl-MDGCEL) (SEQ. ID. NO. 1) designed in the laboratory of the inventors, and a formylated random hexapeptide (formyl-MSADVG) (SEQ: ID: NO: 16) were either synthesized by Pepscan Presto (Lelystad, The Netherlands) or Inbiolabs (Tallinn, Estonia). The peptides were purified by RP-HPLC and mass spectrometry, and the >95% pure peptides were synthesized three times. Cells were treated with Foxy-5 or random peptide at a concentration of 100 μM for times as indicated. All other chemicals if not otherwise stated were purchased from Sigma Chemicals (St. Louis, Mo.).
Cells were lysed in Triton lysis buffer (50 mM Tris (pH7.5), 1% Triton x-100, 140 mM NaCl, 0.5 mM EDTA, 0.5 MgCl2, 10 mM NaF) with the addition of fresh leupeptin (1 μg/ml), Pefabloc (2 mM), aprotinin (20 μg/ml) and Na3VO4 (4 mM). […] Scanning and densitometry was performed using a Bio-Rad (Hercules Calif.) GS-800 densitometer with Quantity One software. […]

Molecule | levels of ERα protein
For-MSADVG [formylated random hexapeptide, reference compound] | Neither of these stimulations resulted in increased levels
recombinant Wnt-3a: recombinant Wnt-3a protein (R&D Systems), specificity control (protein, UniProt P56704 19-352, looked up) Protein Wnt-3a: SYPIWWSLAVGPQYSSLGSQPILCASIPGLVPKQLRFCRNYVEIMPSVAEGIKIGIQECQHQFRGRRWNCTTVHDSLAIFGPVLDKATRESAFVHAIASAGVAFAVTRSCAEGTAAICGCSSRHQGSPGKGWKWGGCSEDIEFGGMVSREFADARENRPDARSAMNRHNNEAGRQAIASHMHLKCKCHGLSGSCEVKTCWWSQPDFRAIGDFLKDKYDSASEMVVEKHRESRGWVETLRPRYTYFKVPTERDLVYYEASPNFCEPNPETGSFGTRDRTCNVSSHGIDGCDLLCCGRGHNARAERRREKCRCVFHWCCYVSCQECTRVYDVHTCK | Neither of these stimulations resulted in increased levels
